# Values quoted from earlier work in article PMC8146789, “20-Hydroxyecdysone, from Plant Extracts to Clinical Use: Therapeutic Potential for the Treatment of Neuromuscular, Cardio-Metabolic and Respiratory Diseases” (Biomedicines, 2021).
# Read-outs that look alike come from different tables or passages of the source.
# Assays:
# rats [1] = test system: rats; set-up: method as in ref [121] = [121]; 121. Ogawa S. Nishimoto N. Matsuda H. Pharmacology of ecdysones un vertebrates Invertebrate Endocrinology and Hormonal Heterophylly Burdette W.J. Springer Berlin, Germany 1974 341 344; conditions: ref [121]; cited from earlier work
# rats [2] = conditions: long-term feeding 0.2–2 g/kg/day, ref [121]; cited from earlier work
# [3] = set-up: method as in PMID 33819630; conditions: male Wistar rats, oral [3H]20E; ref [127]; cited from earlier work
# [4] = set-up: method as in PMID 21439380, PMID 33819630; conditions: mice, oral; ref [126],[127]; cited from earlier work
# [5] = test system: myostatin gene expression in C2C12 cells; conditions: C2C12 myotubes, ref [103], cited from earlier work
# [6] = cited from earlier work
# [7] = in vivo; cited from earlier work
# C2C12 myotubes = test system: C2C12 myotubes; set-up: method as in PMID 24974955; conditions: 20E 1 μM; ref [54]; cited from earlier work
# mice = conditions: ref Ogawa et al. [121], cited from earlier work
# [8] = oral; ref [127],[128]; cited from earlier work
# [9] = set-up: method as in doi:10.1055/s-0032-1320272; conditions: overweight, 2 × 50 mg/day; ref [170]; cited from earlier work
# [10] = set-up: method as in PMID 31190566; conditions: high fructose fed gerbils; ref [61]; cited from earlier work
# Giardiasis = test system: Giardiasis; set-up: method as in PMID 12224262; conditions: 5 mg 3× or 4×/day, 10 days; ref [167]; cited from earlier work
# [11] = humans, ingestion of 434 mg, ref [134]
# [12] = humans, single oral intake of 20 mg, RIA and LC-MS
compound,measurement,setting,value
"CC(C)(O)CC[C@@H](O)[C@](C)(O)[C@H]1CC[C@@]2(O)C3=CC(=O)[C@@H]4C[C@@H](O)[C@@H](O)C[C@]4(C)[C@H]3CC[C@]12C [20E, 2β,3β,14α,20R,22R,25-hexahydroxy-5β-cholest-7-en-6-one]","sex hormonal activity, anti-inflammatory or anabolic effects",rats [1],did not have
same,subacute toxicity,rats [2],no subacute toxicity was observed
same,"radioactivity in urine, of the total radioactivity recovered",[3],1.40%
same,time to completed elimination of 20E and its metabolites,[3],≤ 48 h
same,time at which 20E starts to reach the large intestine,[4],ca. 30 min
same,concentration with significant difference from control in myostatin gene expression,[5]; 0.001 to 10 μM tested,1 to 10 µM
same,myostatin gene expression,[5]; 6 h treatment,mimics the effect of IGF-1 in a dose-dependent manner
same,total urinary excretion of 20E,[6]; [11],5 mg
same,"urinary excretion, of the ingested amount",[6]; [11],approximately 1%
same,urinary peak level,"[6]; humans, ingestion of ca. 15 mg, ref Simon and Koolman [132]",approximately 0.5 μM
same,time of urinary peak of detectable ecdysteroids,[6]; [12],3 to 4 h
same,total quantity of detectable ecdysteroids in urine,[6]; [12],1 to 2 mg
same,effective half-time of elimination from the blood,[6]; in vivo,9 h
same,effective half-time of elimination from the urine,[6]; in vivo,3.3 h
same,time of plasma titre maximum,[6]; in vivo,ca. 30 min
same,time of plasma titre maximum,[7],ca. 30 min
same,myotube diameter,C2C12 myotubes,enhanced myotube diameter
same,LD50,mice; i.p.-injected,6400 mg/kg
same,LD50,mice; ingested,> 9000 mg/kg
same,bioavailability,[8],ca. 1%
same,change in C-reactive protein,[9],−38%
same,change in body fat,[9],−7.6%
same,change in body weight,[9],−1.3%
same,change in total cholesterol,[9],−17%
same,change in triglycerides,[9],−37%
same,change in waist circumference,[9],−3.2%
same,muscle increase,[9],+2.9%
same,effect on adiposity,[10],efficient
same,patients with parasite elimination,Giardiasis,Parasite elimination in 68.7% of patients
